# Test results published in patent publication US20240208972A1, “LRRK2 INHIBITORS AND USES THEREOF” (NEURON23, INC., priority 2022, published 2024).
# Assays:
# Caco-2 cells = experiment: Caco-2 bidirectional permeability; assay type: in vitro ADME; conditions: for Caco-2 A2B (10^−6 cm/s): A to B; for Caco-2 A2B (10^−6 cm/s) / Caco-2 B2A (10^−6 cm/s): HBSS pH 7.4, 2 hours; for Caco-2 B2A (10^−6 cm/s): B to A; for Caco-2 ER: Efflux Ratio=Papp (BA)/Papp (AB)
# Method: The compounds disclosed herein were tested in vitro on CaCo2 cell penetration according to the following procedures.
# Test compounds were prepared in dimethyl sulfoxide (DMSO).
# Caco-2 cells purchased from ATCC were seeded onto […] (PET) in 96-well Corning Insert plates at 1×10^5 cells/cm^2. The media were refreshed every 4 to 5 days until the 21st to 28th day for confluent cell monolayer formation.
# Experiments were run in duplicate using a HBSS transport buffer containing 10 mM HEPES at pH 7.4. The test article TEST COMPOUND was tested bi-directionally at […] concentrations, the control compound digoxin was tested bi-directionally at 10 μM, and nadolol and metoprolol were tested at 2.0 μM in the A to B direction. Final DMSO concentrations were adjusted to less than 1%. The plates were incubated for 2 hours in a CO2 incubator at 37±1° C. with 5% CO2 at saturated humidity without shaking. Following incubation, samples were mixed with acetonitrile containing internal standard and centrifuged at 3200×g for 10 minutes. Then 200 μL of supernatant was taken from all samples. For TEST COMPOUND and digoxin, the supernatant was diluted with 200 μL of ultra-pure water and for nadolol and metoprolol, the supernatant was diluted with 600 μL of ultra-pure water. All samples were analyzed by LC-MS/MS. Concentrations of TEST COMPOUND and control compounds were determined in starting solutions, donor well solutions, and receiver well solutions using peak area ratios (PAR) of analyte to internal standard. After the transport assay, a lucifer yellow rejection assay was run to determine the Caco-2 cell monolayer integrity.
# The apparent permeability (Papp), the % recovery and the efflux ratio were calculated as follows: • 1. Papp=(dCr/dt)×Vr/(A×C0) • 2. % Recovery=100×[(Vr×Cr)+(Vd×Cd)]/(Vd×C0) • 3. Efflux Ratio=Papp (BA)/Papp (AB) • Where: • dCr/dt is the slope of the cumulative concentration in the receiver compartment versus time (mM/s). • Vr and Vd is the volume in the receiver and donor compartments (0.075 mL on the apical side, 0.25 mL on the basolateral side), respectively. • A is the surface area of the cell monolayer (0.0804 cm^2). • C0 is the measured donor concentrations (μM) at the beginning of the experiment. • Cd and Cr are the final measured concentrations in the donor and receiver compartments, respectively.
# The cell monolayer tight junction integrity assay was conducted after completion of the transport assay by adding Lucifer Yellow (LY) to the apical wells at 100 μM and incubating the cells for 30 minutes. Following incubation, tight junction integrity was assessed from LY concentrations in the basolateral compartment (receiver well) and the apical compartment (donor well) using fluorescence detection as follows: […]
# [1] = target: T1, wt human LRRK2, catalytic site (Homo sapiens, UniProt Q5S007); experiment: TR-FRET LanthaScreen Tb Kinase Activity Assay, LRRK2 kinase inhibition; assay type: biochemical; conditions: 2 nM wt human LRRK2, 400 nM peptide, 38 μM ATP
# T1 construct: wt human LRRK2, catalytic site, catalytic site (ThermoFisher/USA); purchased ThermoFisher
# Method: The compounds disclosed herein were tested for their inhibitory effect on LRRK2 kinase according to the following procedures.
# The protocol for basic TR-FRET LanthaScreen Tb Kinase Activity Assay inhibitor studies is as follows. LanthaScreen Kinase Activity Assays (ThermoFisher/USA) to evaluate inhibitors were performed by addition of 100 nL of test compound in the corresponding DMSO dilutions/5 L of kinase/fluorescein-ERM(LRRKtide) peptide mixture, Compound & kinase were pre-incubated for 15 minutes, then 5 μl of ATP into 384 well small volume plates. After incubation for 120 minutes at room temperature, the detection reagents containing Tb-anti-pLRRKtide antibody were added to monitor the phosphrylation level of peptide. Then, after 60 min minutes incubation at room temperature plates were read in Envision. Data analysis of emission ratios was according to the LanthaScreen Tb Kinase Activity Assay protocol.
# Kinase and assay components were adjusted to final concentrations according to the kit protocol. For LRRK2: 2 nM wt human LRRK2, catalytic site, catalytic site (ThermoFisher/USA), 400 nM peptide, 38 μM ATP in 1× Kinase Buffer A.
# Basic protocol for TR-FRET LanthaScreen Tb Kinase Activity Assay inhibitor studies involved two steps: Enzymatic step: Addition of 100 nl of test compound in corresponding DMSO dilutions, 5 μl of kinase/substrate mixture, 5 μl of ATP into 384 well small volume plates. Incubation for 120 minutes at room temperature.
# Detection step: Addition of 10 μl EDTA & antibody, read plate after 60 minutes. Data analysis of emission ratios according to KinEASE assay protocol.
# Kinase and assay components were adjusted to final concentrations according to the kit protocol.
# [2] = Human hepatocyte stability, in vitro h-Hept CLpredict; assay type: in vitro ADME; conditions: cryopreserved hepatocytes, predicted hepatic clearance, cells without asterisk, read-out: hHep Cl
# Method: The compounds disclosed herein were tested in vitro on human hepatocyte for in vitro h-Hept CLpredict according to the following procedures. • 1. Compound sock solutions were prepared by dissolving test compound and positive control in dimethyl sulfoxide (DMSO) at a concentration of 10 mM. Stock solutions were then diluted to 100 μM solutions by combining 198 μL of 50% acetonitrile/50% water with 2 μL of the 10 mM stock stock in separate conical tubes. • 2. Cryopreserved hepatocytes were prepared as follows: Incubation medium (William's E Medium supplemented with GlutaMAX) and hepatocyte thawing medium were placed in a 37° C. water bath and allowed to warm for at least 15 minutes prior to use. Cryopreserved hepatocytes were removed from storage, ensuring that vials remained at cryogenic temperatures until thawed. Cells were thawed by placing the vials in a 37° C. water bath and gently shaking the vials for 2 minutes. After thawing was completed, vials were sprayed with 70% ethanol and transferred to a biosafety cabinet. Hepatocytes were transferred into 50 mL conical tube containing thawing medium using wide-bore pipette tips. Tubes were placed into a centrifuge and spun at 100 g for 10 minutes. Then thawing medium was aspirated and hepatocytes were resuspended in enough incubation medium to yield−1.5×10^6 cells/mL. Cells were counted using acridine orange and propidium iodide (AO/PI) staining, and the viable cell density was determined. Cells were diluted with incubation medium to a working cell density of 0.5×10^6 viable cells/mL. • 3. To determine hepatocyte stability, 198 μL of hepatocytes were transferred into each well of a 96-well non-coated plate. Plates were placed in an incubator to allow the hepatocytes to warm for 10 minutes. • 4. The reaction was started by transferring 2 μL of the 100 μM test compound or positive control solution into respective wells of the 96-well non-coated plates. Plates were returned to the incubator until 25 μL aliquots of well contents were sampled at time points of 0, 15, 30, 60, 90 and 120 minutes. The aliquots were then mixed with 6 volumes (150 μL) of acetonitrile containing internal standard, IS (100 nM alprazolam, 200 nM caffeine and 100 nM tolbutamide) to terminate the reaction and vortexed for 5 minutes. After centrifuging the samples for 45 minutes at 3,220 g, aliquots of 100 μL of the supernatant were taken and diluted with 100 μL of ultra-pure water. The mixture was used for LC/MS/MS analysis. All incubations were performed in duplicate.
# All calculations were carried out using Microsoft Excel. Peak area ratios (PAR) were determined from extracted ion chromatograms. The in vitro half-life (t1/2) of parent compound was determined by regression analysis of the percent parent disappearance vs. time curve as follows:
# The in vitro half-life (in vitro t1/2) was determined from the slope value:
# Conversion of the in vitro t1/2 (in minutes) into the in vitro intrinsic clearance (in vitro CLint, in μL/min/1×10^6 cells) was done using the following equation (mean of duplicate determinations): […]
# The scaled-up intrinsic clearance (CLint, mL/min/kg), predicted hepatic clearance (CLH, mL/min/kg) and hepatic extraction ratio (ER) were calculated using the following equations:
# CLint=(0.693/t1/2)*(1/(hepatocyte concentration (0.5*10^6 cells/mL))*scaling factors (Table (A)
# • CLHept-predict=(QH*Scaled-up CLint*fub)/(QH+Scaled-up CLint*fub) • ER=CLH/QH • Where: • V=incubation volume (0.2 mL) • N=number of hepatocytes per well (0.1*10^6 cells) • QH=hepatic blood flow (mL/min/kg) (Table (A)
# • fub=fraction of unbound drug in plasma, assumed to be 1 • Values used for calculation of the predicted hepatic clearance parameters data processing rules are outlined in the following tables (A) (B)
# T1 sequence (Q5S007 1879-2138 limits assumed): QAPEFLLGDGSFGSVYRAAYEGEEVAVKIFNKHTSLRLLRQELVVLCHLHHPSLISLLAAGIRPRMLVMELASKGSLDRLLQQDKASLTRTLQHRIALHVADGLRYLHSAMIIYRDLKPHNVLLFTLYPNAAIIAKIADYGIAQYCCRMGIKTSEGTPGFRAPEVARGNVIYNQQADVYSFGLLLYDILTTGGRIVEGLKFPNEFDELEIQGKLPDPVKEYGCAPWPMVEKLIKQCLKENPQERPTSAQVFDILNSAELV
Caco-2 A2B (10^−6 cm/s) (Caco-2 cells),Caco-2 B2A (10^−6 cm/s) (Caco-2 cells),Caco-2 ER (Caco-2 cells),IC50 [1] [nM],CLhep predicted at 1 µM [2] [mL/min/kg],SMILES
H (H (High permeability)”: A2B (B2A)>5),H (H (High permeability)”: A2B (B2A)>5),N (N (Non-substrate)”: ER<2.5),< 2,6.3 to 14.7,"Cc1n[nH]c2c1N=C(c1c(F)cccc1F)Nc1ccc(N3C[C@H](C)O[C@@H](C)C3)cc1-2 [Example 24, (2S,6S)-4-(5-(2,6-difluorophenyl)-3-methyl-1,6-dihydrobenzo[d]pyrazolo[3,4-f][1,3]diazepin-9-yl)-2,6-dimethylmorpholine]"
H (H (High permeability)”: A2B (B2A)>5),H (H (High permeability)”: A2B (B2A)>5),N (N (Non-substrate)”: ER<2.5),< 2,< 6.3,"CCc1n[nH]c2c1N=C(c1c(F)cccc1F)Nc1cnc(N3CCO[C@@H](C)C3)cc1-2 [Example 35, (S)-4-(5-(2,6-difluorophenyl)-3-ethyl-1,6-dihydropyrazolo[4,3-d]pyrido[4,3-f][1,3]diazepin-9-yl)-2-methylmorpholine]"
H (H (High permeability)”: A2B (B2A)>5),H (H (High permeability)”: A2B (B2A)>5),N (N (Non-substrate)”: ER<2.5),2 to 100,6.3 to 14.7,"Cc1n[nH]c2c1N=C(c1c(F)cccc1F)Nc1cnc(-n3ccc(C#N)n3)cc1-2 [Example 57, 1-[8-(2,6-difluorophenyl)-5-methyl-3,4,7,9,12-pentazatricyclo [8.4.0.02,6]tetradeca-1(10),2(6),4,7,11,13-hexaen-13-yl]pyrazole-3-carbonitrile]"

# The next lines start with the compound.
SMILES,Caco-2 A2B (10^−6 cm/s) (Caco-2 cells),Caco-2 B2A (10^−6 cm/s) (Caco-2 cells),Caco-2 ER (Caco-2 cells),IC50 [1] [nM],CLhep predicted at 1 µM [2] [mL/min/kg]
"Cc1n[nH]c2c1N=C(c1c(F)cccc1F)Nc1c-2cc(N2CCC(C)(C#N)CC2)nc1C [Example 43, 1-[8-(2,6-difluorophenyl)-5,11-dimethyl-3,4,7,9,12-pentazatricyclo[8.4.0.02,6]tetradeca-1(10),2(6),4,7,11,13-hexaen-13-yl]-4-methyl-piperidine-4-carbonitrile]",H (H (High permeability)”: A2B (B2A)>5),H (H (High permeability)”: A2B (B2A)>5),N (N (Non-substrate)”: ER<2.5),< 2,6.3 to 14.7
"Cc1n[nH]c2c1N=C(c1c(F)cccc1F)Nc1cnc(NCc3ccc(F)cc3F)cc1-2 [Example 16, N-(2,4-difluorobenzyl)-5-(2,6-difluorophenyl)-3-methyl-1,6-dihydropyrazolo[4,3-d]pyrido[4,3-f][1,3]diazepin-9-amine]",H (H (High permeability)”: A2B (B2A)>5),H (H (High permeability)”: A2B (B2A)>5),N (N (Non-substrate)”: ER<2.5),< 2,6.3 to 14.7
"Cc1n[nH]c2c1N=C(c1c(F)cccc1F)Nc1cnc(-n3ccc(C(F)(F)F)n3)cc1-2 [Example 15, 8-(2,6-difluorophenyl)-5-methyl-13-[3-(trifluoromethyl)pyrazol-1-yl]-3,4,7,9,12-pentazatricyclo[8.4.0.02,6]tetradeca-1(10),2(6),4,7,11,13-hexaene]",M (M (Moderate permeability)”: 1≤A2B (B2A)≤5),M (M (Moderate permeability)”: 1≤A2B (B2A)≤5),N (N (Non-substrate)”: ER<2.5),< 2,6.3 to 14.7
"COc1nc(N2CCOCC2)cc2c1NC(c1c(F)cccc1F)=Nc1c(C)n[nH]c1-2 [Example 45, 4-[8-(2,6-difluorophenyl)-11-methoxy-5-methyl-3,4,7,9,12-pentazatricyclo[8.4.0.02,6]tetradeca-1(10),2(6),4,7,11,13-hexaen-13-yl]morpholine]",H (H (High permeability)”: A2B (B2A)>5),M (M (Moderate permeability)”: 1≤A2B (B2A)≤5),N (N (Non-substrate)”: ER<2.5),< 2,6.3 to 14.7
"Cc1n[nH]c2c1N=C(c1c(F)cccc1F)Nc1cnc(-c3ccc(C(F)(F)F)nc3)cc1-2 [Example 58, 8-(2,6-difluorophenyl)-5-methyl-13-[6-(trifluoromethyl)-3-pyridyl]-3,4,7,9,12-pentazatricyclo[8.4.0.0^2,6]tetradeca-1(10),2(6),4,7,11,13-hexaene]",H (H (High permeability)”: A2B (B2A)>5),H (H (High permeability)”: A2B (B2A)>5),N (N (Non-substrate)”: ER<2.5),< 2,6.3 to 14.7
